Results: patent publication US20230077290A1, “HEAVY METAL-FREE CALCIUM HYDROXIDE-BASED ACTIVE SUBSTANCE” (KALKFABRIK NETSTAL AG, priority 2016, published 2023)

Experiments:
Plasmopara viticola = test: Tests against Plasmopara viticola on grapes, dust application before inoculation; assay type: in vivo, Plasmopara viticola on Chasselas grapes; settings: for % leaf surface with symptoms of infection: average +/- standard deviation; for effect on Plasmopara viticola infection, in words: grapes, dust application, positive control Kocide Opti 0.003%
Protocol: Tests Against Plasmopara Viticola on Grapes The above-describe samples were tested in an independent plant research institute. The tests were set up as blind tests parallel to the following controls presented below. Study Design: […] For inoculation, the abaxial side of the fully developed leaves of Plasmopara viticola (50,000 spores/mL) were sprayed, and the entire plant was inoculated. Two types of all of the tests were performed: […] Dust application on the dry test plant before inoculation with the pathogen (so-called standard method) […] Dust application on a wet test plant before inoculation with the pathogen. […] Portion of infected leaf surface in percent of the overall leaf surface. The combined “efficacy severity” was then calculated from this in percent. Controls: […]

[1] = known compounds with very high capacity; cited from earlier work
[2] = Type 1 (dry), study of examples 1 and 2
[3] = Type 2 (wet), study of examples 1 and 2
[4] = Type 1 (dry), study of examples 3 and 4
[5] = Type 2 (wet), study of examples 3 and 4

Q: Which results are given for `[Ca+2].[OH-].[OH-]` [Example 2, Calcium hydroxide]?
A: % leaf surface with symptoms of infection (Plasmopara viticola; Type 1 (dry) dust application on dry plant, study of examples 1 and 2): 50 +/− 22%; % infected leaves (Plasmopara viticola; [2]): 89 +/− 17%; Efficacy severity (Plasmopara viticola; [2]): 46.8%; % leaf surface with symptoms of infection (Plasmopara viticola; Type 2 (wet) dust application on wet plant, study of examples 1 and 2): 59 +/− 22%; % infected leaves (Plasmopara viticola; [3]): 93 +/− 10%; Efficacy severity (Plasmopara viticola; [3]): 36.4%; effect on Plasmopara viticola infection, in words (Plasmopara viticola): only a slight reduction of the infection

Q: For `O=C([O-])[O-].[Li+].[Li+]` [Li2CO3], which “acid neutralization capacity bH+” value [1] is on record?
A: Its value is 27 mol/kg.

Q: With `N` [NH3] as the compound, how does the “acid neutralization capacity bH+” value [1] read?
A: Its value is 59 mol/kg.

Q: Which “acid neutralization capacity bH+” value [1] does the source give for `[Na+].[OH-]` [NaOH] here?
A: Its value is 25 mol/kg.

Q: With Calcium stearate [Example 4] as the compound, how does the Efficacy severity (Plasmopara viticola; [4]) read?
A: Its Efficacy severity is 7.3%.

Q: And the “% leaf surface with symptoms of infection” value (Plasmopara viticola; [4])?
A: Its value is 62 +/− 20%.

Q: What about the “% infected leaves” value (Plasmopara viticola; Type 1 (wet) as printed, study of examples 3 and 4) of the same compound?
A: The value was 93 +/− 10%.

Q: And the “% infected leaves” value (Plasmopara viticola; [5])?
A: The value was 91 +/− 10%.

Q: And the Efficacy severity (Plasmopara viticola; [5])?
A: Its Efficacy severity is 13.3%.

Q: And the “% leaf surface with symptoms of infection” value (Plasmopara viticola; [5])?
A: The value was 58 +/− 8%.

Q: And the “effect on Plasmopara viticola infection, in words” value (Plasmopara viticola)?
A: The value was “inactive”.
